The record followed here is patent US9499553B2 (CHUGAI SEIYAKU KABUSHIKI KAISHA, priority 2013, dated 2016).

The target in the first assay is T1, human NaPi-IIb (Homo sapiens, UniProt O95436).
T1 construct: expressed in transfected cells
T1 sequence (O95436 1-690): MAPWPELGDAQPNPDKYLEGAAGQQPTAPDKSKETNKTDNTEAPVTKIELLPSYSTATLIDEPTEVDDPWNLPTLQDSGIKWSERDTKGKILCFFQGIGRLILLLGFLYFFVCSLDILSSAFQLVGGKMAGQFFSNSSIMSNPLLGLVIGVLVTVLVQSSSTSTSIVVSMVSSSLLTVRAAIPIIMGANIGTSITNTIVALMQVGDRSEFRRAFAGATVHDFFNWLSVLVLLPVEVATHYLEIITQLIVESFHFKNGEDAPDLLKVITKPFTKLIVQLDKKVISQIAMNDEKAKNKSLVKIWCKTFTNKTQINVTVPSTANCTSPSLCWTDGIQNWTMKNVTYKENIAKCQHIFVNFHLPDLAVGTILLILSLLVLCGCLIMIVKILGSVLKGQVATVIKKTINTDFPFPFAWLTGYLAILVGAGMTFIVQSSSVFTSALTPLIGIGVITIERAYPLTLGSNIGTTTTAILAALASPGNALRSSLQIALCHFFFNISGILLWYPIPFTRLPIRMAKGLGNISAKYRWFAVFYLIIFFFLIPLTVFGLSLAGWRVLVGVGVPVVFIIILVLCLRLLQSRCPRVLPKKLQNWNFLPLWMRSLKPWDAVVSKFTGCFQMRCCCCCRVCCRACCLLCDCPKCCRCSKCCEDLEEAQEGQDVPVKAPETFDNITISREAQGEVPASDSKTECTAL
In words: Inhibitory effect on 33PO4 uptake into human NaPi-IIb-expressing CHO cells. In kind it is cell-based. To be noted: read-out: IC50. The procedure, abridged: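 Uptake of ³³PO4 was measured by scintillation counting after ice-cold buffer A washes. Cells were CHO stably expressing human NaPi-IIb, seeded overnight, and exposed to ³³PO4 in buffer A at room temperature.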
As a reminder, the IC50 is the midpoint of a concentration-inhibition curve. For `CSc1ccc(-c2cc(C(F)(F)F)ccc2NC(=O)C2=C(O)[C@@]3(C)CCCN3N(Cc3ccc(C#CCCCCC(=O)O)c(F)c3F)C2=O)cn1` [Example 117, 7-[4-[[(4aR)-4-Hydroxy-4a-methyl-3-[[2-(6-methylsulfanylpyridin-3-yl)-4-(trifluoromethyl)phenyl]carbamoyl]-2-oxo-6,7-dihydro-5H-pyrrolo[1,2-b]pyridazin-1-yl]methyl]-2,3-difluorophenyl]hept-6-ynoate], the IC50 was 9.5 µM.

In the case of `C[C@]12CCCN1N(Cc1ccc(OCCCCOC[C@H](O)CO)c(F)c1F)C(=O)C(C(=O)Nc1ccc(Cl)cc1-c1ccc(C(F)(F)F)nc1)=C2O` [Example 121, (4aR)—N-[4-Chloro-2-[6-(trifluoromethyl)pyridin-3-yl]phenyl]-1-[[4-[4-[(2R)-2,3-dihydroxypropoxy]butoxy]-2,3-difluorophenyl]methyl]-4-hydroxy-4a-methyl-2-oxo-6,7-dihydro-5H-pyrrolo[1,2-b]pyridazine-3-carboxamide], the IC50 amounted to 16 µM.

Consider `C[C@]12CCCN1N(Cc1ccc(C#CCOCCCCO)c(F)c1F)C(=O)C(C(=O)Nc1ccc(C(F)(F)F)cc1-c1ccc(C(F)(F)F)nc1)=C2O` [Example 128], for which the IC50 turned out to be 12 µM.

On to `CN1N(Cc2cccc(F)c2F)C(=O)C(C(=O)Nc2ccc(Cl)cc2-c2ccc(C(F)(F)F)nc2)=C(O)C12CCC2` [Example 256], for which the IC50 amounted to 4.4 µM.

On to `C[C@]12CCCN1N(Cc1ccc(F)c(F)c1)C(=O)C(C(=O)Nc1ccc(C(F)(F)F)cc1-c1ccc(C(F)(F)F)nc1)=C2O` [Example 170], for which the IC50 came to 2.2 µM.

With `C[C@]12CCCN1N(Cc1ccc(OCCN3CCOCC3)c(F)c1F)C(=O)C(C(=O)Nc1ccc(C(F)(F)F)nc1-c1cncc(C(F)(F)F)c1)=C2O` [Example 106], the IC50 amounted to 12 µM.

Regarding `C[C@]12CCCN1N(Cc1ccc(Br)cc1F)C(=O)C(C(=O)Nc1cc(F)c(Br)c(F)c1)=C2O` [Example 166, (4aR)—N-(4-Bromo-3,5-difluorophenyl)-1-[(4-bromo-2-fluorophenyl)methyl]-4-hydroxy-4a-methyl-2-oxo-6,7-dihydro-5H-pyrrolo[1,2-b]pyridazine-3-carboxamide], the IC50 came out at 10.5 µM.

Regarding `CN1N(Cc2cccc(F)c2F)C(=O)C(C(=O)Nc2ccc(Cl)cc2-c2cc(C(F)(F)F)ncn2)=C(O)C12CCCC2` [Example 261], the IC50 turned out to be 7.7 µM.

As for `COc1cccc(-c2cc(C(F)(F)F)ccc2NC(=O)C2=C(O)[C@@]3(C)CCCN3N(Cc3ccc(OC4CCOCC4)c(F)c3F)C2=O)c1OC` [Example 158], the IC50 is 12.8 µM.

As for `CSc1ccc(-c2cc(C(F)(F)F)ccc2NC(=O)C2=C(O)C(C)(C)N(C)N(Cc3cccc(F)c3F)C2=O)cn1` [Example 310], the IC50 was 4.7 µM.

For the compound `COc1ccc(OC)c(CN2C(=O)C(C(=O)Nc3ccc(C(F)(F)F)cc3-c3ccc(C(F)(F)F)nc3)=C(O)[C@@]3(C)CCCN23)c1` [Example 176], the IC50 worked out at 4 µM.

For `COc1cccc(-c2cc(C(F)(F)F)ccc2NC(=O)C2=C(O)[C@@]3(C)CCCN3N(Cc3ccc(C#CCCO)c(F)c3F)C2=O)c1OC` [Example 134], the IC50 was 19.7 µM.

For `CC(C)(C)[C@H]1C(O)=C(C(=O)Nc2cc(F)c(Br)c(F)c2)C(=O)N(Cc2cccc(F)c2F)N1CC(F)(F)F` [Example 248], the IC50 worked out at 17.6 µM.

For the compound `Cc1cccc(CN2C(=O)C(C(=O)Nc3cc(F)c(Br)c(F)c3)=C(O)[C@@]3(C)CCCN23)c1F` [Example 195], the IC50 was 4.6 µM.

`C[C@]12CCCN1N(Cc1cccc([N+](=O)[O-])c1)C(=O)C(C(=O)Nc1ccc(Br)c(F)c1)=C2O` [Example 27]: the IC50 was found to be 9 µM.

As to `C[C@]12CCCN1N(Cc1cc(F)cc(F)c1)C(=O)C(C(=O)Nc1cc(F)c(Br)c(F)c1)=C2O` [Example 190], the IC50 came to 5.1 µM.

Turning to `C[C@]12CCCN1N(Cc1ccccc1Cl)C(=O)C(C(=O)Nc1cc(F)c(Br)c(F)c1)=C2O` [Example 219], the IC50 amounted to 4.2 µM.

On to `C[C@]12CCCN1N(Cc1cccc(OC(F)(F)F)c1)C(=O)C(C(=O)Nc1ccc(C(F)(F)F)cc1-c1cc(C(F)(F)F)ncn1)=C2O` [Example 189], for which the IC50 came to 5.5 µM.

Regarding `CC(C)[C@@H]1C(O)=C(C(=O)Nc2ccc(C(F)(F)F)cc2-c2cc(C(F)(F)F)ncn2)C(=O)N(Cc2cccc(F)c2F)N1C` [Example 249], the IC50 is 9.8 µM.

For the compound `C[C@]12CCCN1N(Cc1cccc(F)c1F)C(=O)C(C(=O)Nc1ccc(C(F)(F)F)cc1-c1ncnc(Cl)c1Cl)=C2O` [Example 70], the IC50 was 8.4 µM.

Consider `COc1cccc(-c2cc(C(F)(F)F)ccc2NC(=O)C2=C(O)[C@@]3(C)CCCN3N(Cc3ccc(C#CCOCCO)c(F)c3F)C2=O)c1OC` [Example 137], for which the IC50 amounted to 19.7 µM.

`C[C@]12CCCN1N(Cc1ccc(C#CCN3CCOCC3=O)c(F)c1F)C(=O)C(C(=O)Nc1ccc(Br)c(F)c1)=C2O` [Example 133]: the IC50 came to 13.1 µM.

Turning to `C[C@]12CCCN1N(Cc1ccccc1C#N)C(=O)C(C(=O)Nc1cc(F)c(Br)c(F)c1)=C2O` [Example 218], the IC50 turned out to be 7.2 µM.

For the compound `C[C@]12CCCN1N(Cc1c(F)cccc1F)C(=O)C(C(=O)Nc1ccc(C(F)(F)F)cc1-c1ccc(C(F)(F)F)nc1)=C2O` [Example 203], the IC50 was 2 µM.

With `C[C@]12CCCN1N(Cc1cccc(F)c1F)C(=O)C(C(=O)Nc1ccc(Cl)cc1-c1ccc(C(F)(F)F)nc1)=C2O` [Example 86], the IC50 was determined as 5.3 µM.

As for `C[C@]12CCCN1N(Cc1ccc(Cl)cc1)C(=O)C(C(=O)Nc1cc(F)c(Br)c(F)c1)=C2O` [Example 223], the IC50 amounted to 17.9 µM.

As for `C[C@]12CCCN1N(Cc1ccc(Cl)cc1)C(=O)C(C(=O)Nc1ccc(C(F)(F)F)cc1-c1cc(C(F)(F)F)ncn1)=C2O` [Example 182], the IC50 came out at 5.1 µM.

The assay is the same for the next values; noted with them: read-out: IC50 against 33PO4 uptake into human NaPi-IIb-expressing cells.
As for `CN1N(Cc2ccc(OCCN3CCN(CCO)CC3)c(F)c2F)C(=O)C(C(=O)Nc2ccc(C(F)(F)F)cc2-c2cc(C(F)(F)F)ncn2)=C(O)C12CCCC2` [Example 376], the IC50 stood at 21.4 µM.

For the compound `CN1N(Cc2ccc(OCCN3CCN(S(C)(=O)=O)CC3)c(F)c2F)C(=O)C(C(=O)Nc2ccc(C(F)(F)F)cc2-c2cc(C(F)(F)F)ncn2)=C(O)C12CCCC2` [Example 379], the IC50 was found to be 27.3 µM.

`CN(CCOCCC(=O)NCC(O)CO)CCOc1ccc(CN2C(=O)C(C(=O)Nc3ccc(C(F)(F)F)cc3-c3cc(C(F)(F)F)ncn3)=C(O)C3(CCCC3)N2C)c(F)c1F` (centres unmarked) [Example 426]: the IC50 is 26.1 µM.

Consider `CN1N(Cc2ccc(OCCN(CCO)CCO)c(F)c2F)C(=O)C(C(=O)Nc2ccc(C(F)(F)F)cc2-c2cc(C(F)(F)F)ncn2)=C(O)C12CCC2` [Example 351], for which the IC50 was found to be 25.5 µM.

For `CN1N(Cc2ccc(OCCOCCNCC(O)CO)c(F)c2F)C(=O)C(C(=O)Nc2ccc(C(F)(F)F)cc2-c2cc(C(F)(F)F)ncn2)=C(O)C12CCCC2` (centres unmarked) [Example 419, 7-[[4-[2-[2-(2,3-Dihydroxypropylamino)ethoxy]ethoxy]-2,3-difluorophenyl]methyl]-10-hydroxy-6-methyl-8-oxo-N-[4-(trifluoromethyl)-2-[6-(trifluoromethyl)pyrimidin-4-yl]phenyl]-6,7-diazaspiro[4.5]dec-9-ene-9-carboxamide], the IC50 was 24.8 µM.

On to `CN1N(Cc2ccc(OCCNCCS(=O)(=O)O)c(F)c2F)C(=O)C(C(=O)Nc2ccc(C(F)(F)F)cc2-c2cc(C(F)(F)F)ncn2)=C(O)C12CCCC2` [Example 435], for which the IC50 was 17.1 µM.

In the case of `CN1N(Cc2ccc(OCCN3CCN(S(C)(=O)=O)CC3)c(F)c2F)C(=O)C(C(=O)Nc2ccc(C(F)(F)F)cc2-c2cc(C(F)(F)F)ncn2)=C(O)C12CCC2` [Example 363], the IC50 was 28 µM.

Consider `CN(C[C@H](O)[C@@H](O)[C@H](O)[C@H](O)CO)C(=O)COCCOCCOCCOCCOc1ccc(CN2C(=O)C(C(=O)Nc3ccc(C(F)(F)F)cc3-c3cc(C(F)(F)F)ncn3)=C(O)C3(CCCC3)N2C)c(F)c1F` [Example 441, 7-[[2,3-Difluoro-4-[2-[2-[2-[2-[2-[methyl-[(2S,3R,4R,5R)-2,3,4,5,6-pentahydroxyhexyl]amino]-2-oxoethoxy]ethoxy]ethoxy]ethoxy]ethoxy]phenyl]methyl]-10-hydroxy-6-methyl-8-oxo-N-[4-(trifluoromethyl)-2-[6-(trifluoromethyl)pyrimidin-4-yl]phenyl]-6,7-diazaspiro[4.5]dec-9-ene-9-carboxamide], for which the IC50 was determined as 21.4 µM.

On to `CN1N(Cc2ccc(OCCCOC[C@H](O)CO)c(F)c2F)C(=O)C(C(=O)Nc2ccc(C(F)(F)F)cc2-c2ccc(C(F)(F)F)nc2)=C(O)C12CCCC2` [Example 386], for which the IC50 is 18.9 µM.

As to `COC(C)(C)CN(C)CCOc1ccc(CN2C(=O)C(C(=O)Nc3ccc(C(F)(F)F)cc3-c3cc(C(F)(F)F)ncn3)=C(O)C3(CCC3)N2C)c(F)c1F` [Example 350], the IC50 amounted to 16.9 µM.

As for `CN1N(Cc2ccc(OCCCCCOC[C@H](O)CO)c(F)c2F)C(=O)C(C(=O)Nc2ccc(C(F)(F)F)cc2-c2ccc(C(F)(F)F)nc2)=C(O)C12CCCC2` [Example 388], the IC50 was 6.9 µM.
